From patent US5731344A, “Bishispidine compounds, processes for their production and pharmaceutical agents containing these compounds” (Boehringer Mannheim GmbH, priority 1993, dated 1998) come the findings set out here.

The test system of the experiment is Lysozyme. Put plainly: Test for the inhibitory activity on the formation of AGE (lysozyme dimer formation, SDS gel electrophoresis, densitometry). Particulars: AGE-inhibitory action, lysozyme 20 mg/ml, pH 7.4, 200 mmol/l glucose or xylose, 24 to 120 hours. The format is biochemical. On the procedure: Test for the inhibitory activity on the formation of AGE
Lysozyme is dissolved at a final concentration of 20 mg/ml in 100 mmol/l potassium phosphate buffer, pH 7.4. 5 mmol/l sodium azide is added as a preservative. The formation of AGE is initiated by the addition of 200 mmol/l glucose or xylose. Test substances or the reference substance aminoguanidine are added at different concentrations in order to quantify an inhibitory activity on AGE formation. Solvent controls as well as control mixes are also run in the presence of 200 mmol/l sorbitol or xylite for correction purposes. The incubation period of the reaction mixtures is between 24 and 120 hours depending on the sugar used and is selected in such a way that mainly dimers are formed and other higher molecular oligomerization products are formed only to a slight extent.
The samples are prepared and SDS gel electrophoresis is carried out according to literature references. Summarized briefly the samples are diluted with the 4-fold amount of sample buffer (50 mmol/l Tris^* acetate, pH 7.5, 1% SDS, 5 mmol/l dithiothreitol) and heated for 3 minutes to 95° C. Aliquots are applied to 8-18% gradient-SDS gels. In order to determine the molecular weight molecular weight markers are also used in the range 14-340 kD. The separation according to molecular weight is achieved under the following operating conditions: voltage: 600 V, current intensity: 50 mA, power: 30 W, run period: ~60 minutes.
After the gel electrophoresis the gels are fixed according to standard methods and stained with Coomassie Blue. After destaining overnight and drying, the gels are measured densitometrically (Pharmacia Ultra Scan XL using GelScan XL software).
In order to determine the threshold concentration and the IC50 values of the AGE-inhibitory action of the test substances, the dimer formation is plotted semi-logarithmically against the test concentration of the substance and the above-mentioned parameters are calculated.

Consider `O=c1oc(/C=C/c2ccc(O)c(O)c2)cc(O)c1C(c1ccc(Cl)cc1)c1c(O)cc(/C=C/c2ccc(O)c(O)c2)oc1=O` [Example 1, 3,3'-(4-Chlorobenzylidene)bis[6-[2-(3,4-dihydroxyphenyl)vinyl]-4-hydroxy-2H-pyran-2-one]], for which the midpoint of inhibition, the IC50, lay at 4 µM and the Threshold concentration is over 1 µmol/L.

As for `COc1ccc(C(c2c(O)cc(/C=C/c3ccc(O)c(O)c3)oc2=O)c2c(O)cc(/C=C/c3ccc(O)c(O)c3)oc2=O)cc1O` [Example 3, 3,3'-(3-Hydroxy-4-methoxybenzylidene)bis[6-[2-(3,4-dihydroxyphenyl)vinyl]-4-hydroxy-2H-pyran-2-one]], the IC50 – broadly, the midpoint of a concentration-inhibition curve – came to 2 µM and the Threshold concentration is over 1 µmol/L.

Take `CC(C)(C)c1cc(C(c2c(O)cc(/C=C/c3ccc(O)c(O)c3)oc2=O)c2c(O)cc(/C=C/c3ccc(O)c(O)c3)oc2=O)cc(C(C)(C)C)c1O` [Example 4, 3,3'-(4-Hydroxy-3,5-(bis-1,1-dimethylethyl)benzylidene]bis[6-[2-(3,4-dihydroxyphenyl)vinyl]-4-hydroxy-2H-pyran-2-one]]: the IC50 was determined as 2 µM and the Threshold concentration was over 1 µmol/L.

`COc1ccc(C(c2c(O)cc(/C=C/c3ccc(O)c(O)c3)oc2=O)c2c(O)cc(/C=C/c3ccc(O)c(O)c3)oc2=O)cc1` [Example 5] registered an IC50 of 2 µM and a Threshold concentration of over 1 µmol/L.

`COc1ccc(C(c2c(O)cc(/C=C/c3ccc(O)c(O)c3)oc2=O)c2c(O)cc(/C=C/c3ccc(O)c(O)c3)oc2=O)cc1OC` [Example 6] gave an IC50 of 5 µM and a Threshold concentration of over 1 µmol/L.

Take `O=c1oc(/C=C/c2ccc(O)c(O)c2)cc(O)c1C(c1ccc(O)c(O)c1)c1c(O)cc(/C=C/c2ccc(O)c(O)c2)oc1=O` [Example 7]: the IC50 is 4 µM and the Threshold concentration turned out to be 2 µmol/L.

`N#Cc1ccc(C(c2c(O)cc(/C=C/c3ccc(O)c(O)c3)oc2=O)c2c(O)cc(/C=C/c3ccc(O)c(O)c3)oc2=O)cc1` [Example 8]: the IC50 turned out to be 22 µM and the Threshold concentration came to 10 µmol/L.

As for `N=C(N)NN` [aminoguanidine, reference compound], 4500 µM corresponded to half-maximal inhibition (IC50) and the Threshold concentration amounted to 500 µmol/L.
